Laboratory results reported in patent publication US11596611B2, “Hepatitis B antiviral agents” (ENANTA PHARMACEUTICALS, INC., priority 2017, dated 2023).
Where two headings read alike, the source gives them in different places.

Tested on: HBV
Experiment: HepAD38 antiviral assay: reduction of viral product accumulation (virion DNA by qPCR, HBsAg or HBeAg by ELISA)
Format: cell-based, hepatitis B virus
Settings: HepAD38 cells, five days after compound addition, 50% reduction of viral product vs no drug controls, read-out: HepAD38 EC50
Protocol: Methods: HepAD38 cells are maintained as previously reported (Ladner et al, Antimicrob. Agents Chemother. 1997, […], 1715). Briefly, cells are passaged upon attaining confluency in DMEM/F12 media in the presence of 10% FBS, Penn/Strep, 250 μg/mL G418, and 1 ug/ml tetracycline. Novel compounds are screened by first washing cells three times with PBS to remove tetracycline, and plating in 96 well plates at 35,000 cells/well. Compounds dissolved in DMSO are then diluted 1:200 into wells containing cells. Five days after compound addition, material is harvested for analysis. For an extended 8 days analysis, cells are plated and treated as described above, but media and compound are refreshed on d2 and d5 post initial treatment.
On harvest day, virion DNA is obtained by lysing with Sidestep Lysis and Stabilization Buffer and then quantified via quantitative real time PCR. Commercially available ELISA kits are used to quantitate the viral proteins HBsAg (Alpco) or HbeAg (US Biological) by following the manufacturer's recommended protocol after diluting samples to match the linear range of their respective assays.

Row | Structure (SMILES) | EC50 (Hepatitis B virus, 120 h) [nM] | EC50 [nM]
1 | COC(=O)CNC(=O)[C@H]1C[C@@H](S(=O)(=O)c2cc(C(=O)Nc3ccc(F)c(F)c3)ccc2Cl)C1 [Example 253b] | > 200 | –
2 | O=C(CC1(O)CC(S(=O)(=O)c2cc(C(=O)Nc3ccc(F)c(F)c3)ccc2Cl)C1)NCCO (stereo not shown) [Example 245] | > 200 | –
3 | CC[C@@H](O)[C@H](O)[C@]1(O)C2CCC1C[C@@H](S(=O)(=O)c1cc(C(=O)Nc3ccc(F)c(F)c3)ccc1Cl)C2 (racemic) [Example 333] | < 104 | –
4 | O=C(C[C@]1(O)C2CCC1C[C@@H](S(=O)(=O)c1cc(C(=O)Nc3cc(F)c(F)c(F)c3)ccc1Cl)C2)NCC(O)CO (stereo partly shown) [Example 65] | < 104 | –
5 | O=C(Nc1ccc(F)c(F)c1)c1ccc(Cl)c(S(=O)(=O)[C@H]2CC3CCC(C2)[C@]3(O)C(O)Cc2ncc[nH]2)c1 (stereo partly shown) [Example 316] | > 200 | –
6 | COC(=O)N1CC[C@@H](O)[C@H]1C(=O)NC[C@]1(O)C2CCC1C[C@@H](S(=O)(=O)c1cc(C(=O)Nc3cc(F)c(F)c(F)c3)ccc1Cl)C2 [Example 78] | > 200 | –
7 | C[C@@]1(O)C2CC[C@H]1C[C@H](S(=O)(=O)c1cc(C(=O)Nc3ccc(F)c(F)c3)c(-c3ccncc3)cc1Cl)C2 [Example 132] | > 200 | –
8 | C[C@]1(O)C2CCC1C[C@@H](S(=O)(=O)c1cc(C(=O)Nc3ccc(C#N)c(F)c3)ccc1Cl)C2 [Example 45] | > 200 | –
9 | Cc1cccc([C@H](O)[C@@]2(O)C3CC[C@H]2C[C@H](S(=O)(=O)c2cc(C(=O)Nc4ccc(F)c(F)c4)ccc2Cl)C3)n1 [Example 294a] | < 104 | –
10 | CC(O)C[C@]1(O)CC[C@@H](CS(=O)(=O)c2cc(C(=O)Nc3ccc(F)c(F)c3)ccc2Cl)CC1 (stereo partly shown) [Example 224] | 100 to 200 | –
11 | O=C(Nc1ccc(F)c(F)c1)c1ccc(Cl)c(S(=O)(=O)[C@H]2CC3CCC(C2)[C@]3(O)C(O)C(O)CN2CCCS2(=O)=O)c1 (stereo partly shown) [Example 320] | < 104 | –
12 | C[C@H](O)[C@@H](O)[C@@]1(O)C2CC(O)C1C[C@H](S(=O)(=O)c1cc(C(=O)Nc3ccc(F)c(F)c3)ccc1Cl)C2 (stereo partly shown) [Example 337] | > 200 | –
13 | O=C(Nc1ccc(F)c(F)c1)c1ccc(Cl)c(S(=O)(=O)[C@@H]2CC3C[C@@H](O)C(C2)[C@@]3(O)CO)c1 (stereo partly shown) [Example 328] | 100 to 200 | –
14 | CC(C)N(C)C[C@]1(O)C2CCC1C[C@@H](S(=O)(=O)c1cc(C(=O)Nc3ccc(F)c(F)c3)ccc1Cl)C2 [Example 304] | < 104 | –
15 | O=C(C[C@]1(O)C2CCC1C[C@@H](S(=O)(=O)c1cc(C(=O)Nc3cc(F)c(F)c(F)c3)ccc1Cl)C2)Nc1nccs1 [Example 138] | < 104 | –
16 | O=C(Nc1ccc(F)c(F)c1)c1ccc(Cl)c(S(=O)(=O)CC2CCC(F)(F)CC2)c1 [Example 219] | > 200 | –
17 | CC(C)(O)/C=C\[C@]1(O)C2CCC1C[C@@H](S(=O)(=O)c1cc(C(=O)Nc3cc(F)c(F)c(F)c3)ccc1Cl)C2 [Example 21] | < 104 | –
18 | C[C@@H](O)COCC1(O)CCC(CS(=O)(=O)c2cc(C(=O)Nc3ccc(F)c(F)c3)ccc2Cl)CC1 (stereo partly shown) [Example 197] | > 200 | –
19 | Cc1cc(Cl)c(S(=O)(=O)[C@H]2CC3CCC(C2)[C@@]3(C)O)cc1C(=O)Nc1ccc(F)c(F)c1 [Example 69] | < 104 | –
20 | C[C@]1(O)C2CCC1C[C@@H](S(=O)(=O)c1cc(C(=O)Nc3ccc(F)c(F)c3)c(-c3cccnc3)cc1Cl)C2 [Example 102] | > 200 | –
21 | O=C(Nc1cc(F)c(F)c(F)c1)c1ccc(Cl)c(S(=O)(=O)[C@H]2CC3CCC(C2)[C@]3(O)[C@H](O)[C@@H](O)CO)c1 [Example 51] | – | < 104
22 | O=C(Nc1ccc(F)c(F)c1)c1ccc(Cl)c(S(=O)(=O)[C@H]2CC3CCC(C2)[C@]3(O)C(O)c2ccc(F)c[n+]2[O-])c1 (stereo partly shown) [Example 292] | > 200 | –
23 | COC(=O)CNC(=O)CC1(O)CC(S(=O)(=O)c2cc(C(=O)Nc3ccc(F)c(F)c3)ccc2Cl)C1 (stereo not shown) [Example 244] | > 200 | –
24 | O=C(Nc1ccc(F)c(F)c1)c1ccc(Cl)c(S(=O)(=O)[C@H]2CC3CCC(C2)[C@]3(O)C(O)c2ccccc2)c1 (stereo partly shown) [Example 283] | 100 to 200 | –
25 | C[C@@H](CO)NC(=O)[C@H]1C[C@H](S(=O)(=O)c2cc(C(=O)Nc3ccc(F)c(F)c3)ccc2Cl)C1 [Example 256a] | > 200 | –
